Source: ChEMBL document CHEMBL1158250, “(all trans)-2,4,6,8,10,12-tetradecahexene-1,14-dial, a new pigment from Conidiobolus paulus” (J Nat Prod, 1996)

Experiments:
[1] = Toxicity in chick embryo up to 100 ug; parameters: species or system Gallus gallus; conditions: chicken
[2] = system: Bacillus cereus; experiment: Antibacterial activity against Bacillus cereus B-3705 after 24 hrs by antibiotic disk assay; assay type: functional
[3] = system: Escherichia coli; experiment: Antibacterial activity against Escherichia coli B-3704 after 24 hrs by antibiotic disk assay; assay type: functional

MIC [2]: 10 µg
MIC [3]: 50 µg
Compound: O=C/C=C/C=C/C=C/C=C/C=C/C=C/C=O
Activity [1]: Non-toxic
